Data taken from ChEMBL document CHEMBL4421729 (2013).

Target: T1, Taste receptor type 2 member 46 (Homo sapiens) (UniProt P59540)
T1 sequence (whole entry): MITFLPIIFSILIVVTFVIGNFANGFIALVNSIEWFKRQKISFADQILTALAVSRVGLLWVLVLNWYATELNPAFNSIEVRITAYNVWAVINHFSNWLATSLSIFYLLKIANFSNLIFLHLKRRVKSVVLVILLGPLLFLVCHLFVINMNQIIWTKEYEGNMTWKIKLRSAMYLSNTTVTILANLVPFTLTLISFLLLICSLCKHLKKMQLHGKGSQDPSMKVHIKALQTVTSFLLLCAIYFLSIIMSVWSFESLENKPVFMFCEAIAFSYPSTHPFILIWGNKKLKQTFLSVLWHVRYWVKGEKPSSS
Experiment: Agonist activity human TAS2R46 transiently expressed in HEK293T/Galpha16-gustducin 44 cells assessed as effect on calcium flux by measuring deltaF/F0 ratio by Fluo-4-AM dye based FLIPR assay
Assay type: functional, cell-based

In the case of `COc1ccc2c(c1)[C@]13CCCC[C@@H]1[C@H](C2)N(C)CC3`, the Activity is reported as “Dose-dependent effect”.
